Laboratory results published in publication PMC5995839, “Exploring the role of unnatural amino acids in antimicrobial peptides” (Scientific Reports, 2018).
Converted amounts (≈) assume the structure as drawn. Square brackets hold non-standard residues; d marks the D form. Peptide text beside a SMILES is read from it. * marks the point of attachment. 2Nal = N[C@@H](Cc1ccc2ccccc2c1)C(=O)O; Ahx = NCCCCCC(=O)O; StBu = CC(C)(C)S*; tBu = CC(C)(C)*

How the values were obtained:
[1] = Relative hydrophobicity by retention in reverse phase HPLC; format: physicochemical; details: chromatographic, Fig. S4 and Table S1 (numbers not available here)
Experimental: Crude peptides were purified by preparative HPLC on a Shimadzu LC-8A system. A Vydac C18 column (22 mm × 250 mm; 10 μm) was used, eluted with a H2O 0.1% TFA, (eluent A) and CH3CN 0.1% TFA (eluent B) linear gradient at 22 mL min^−1 flow rate. Fractions were separated according to their absorbance at 210 nm by an online UV detector (Shimadzu). Peptide fractions were then checked for their purity by analytical LCMS. Peptide identities were confirmed by LCMS analysis on a Shimadzu 20ADxr coupled with a Shimadzu ESI-IT-TOF mass detector (probe voltage 4.5 kV; probe temperature 25 °C; desolvation temperature 250 °C; detector voltage 1.5 kV). All analyses were performed with a Vydac C18 column (2.1 mm × 100 mm; 5 μm), eluted with a H2O 0.05% TFA, (eluent A) and CH3CN 0.05% TFA (eluent B) linear gradient, from 5% to 95% (solvent B), over 30 minutes, at 0.2 ml min^−1 flow rate. Pure fractions were pooled and lyophilized as TFA salts (purity >95%). Peptide samples for biological assays were further subjected to counter ion exchange on a DEAE-Sephadex weak […] resin. Briefly, peptide solutions in water were loaded on a 0.5 mL syringe column, and then eluted by decreasing the pH with an acetate buffer at pH 4.3 to obtain the desired peptide acetate salt. Further, the relative hydrophobicities of P9 peptides were evaluated through their retention in reverse phase HPLC.

[2] = system: Escherichia coli (ATCC 25922); format: cell-based
Experimental: (§2) MIC assays were performed by broth microdilution method as described elsewhere[34] using Nutrient Broth (Becton Dickinson Difco, Franklin Lakes, NJ) as bacterial growth medium. […] Experiments were performed three times for each peptide.

[3] = system: Staphylococcus aureus (ATCC 6538P); format: cell-based
[4] = system: Escherichia coli ATCC 25922; format: cell-based
Experimental: The antimicrobial activity of the three designed peptides was tested against Escherichia coli (ATCC® 25922™), Pseudomonas aeruginosa (ATCC® 27853™), Pseudomonas aeruginosa PAO1 wild type strain, Bacillus subtilis subsp. spizizenii (ATCC® 6633™), Staphylococcus aureus (ATCC® 6538 P™) and Staphylococcus aureus MRSA WKZ-2 (kindly provided by collection of Prof. Edwin Veldhuizen, University of Utrecht, Holland). MIC assays were performed by broth microdilution method as described elsewhere[34] using Nutrient Broth (Becton Dickinson Difco, Franklin Lakes, NJ) as bacterial growth medium. […] Experiments were performed three times for each peptide.
Following the incubation time, MIC assays were carried out as previously described. […] Experiments were performed five times for each peptide.

[5] = system: Pseudomonas aeruginosa (ATCC 27853); format: cell-based
Experimental: as §2

[6] = system: Staphylococcus aureus MRSA WKZ-2; format: cell-based
Experimental: as §2

[7] = system: Bacillus subtilis subsp. spizizenii (ATCC 6633); format: cell-based
Experimental: as §2

[8] = system: Pseudomonas aeruginosa PAO1 wild type strain; format: cell-based
Experimental: as §2

[9] = system: human keratinocytes cells HaCaT; format: cell-based
Experimental: (§1) Cytotoxic effects of the three peptides on human epithelial colorectal adenocarcinoma cells (CaCo-2) and on aneuploid immortal keratinocyte cells line from adult human skin (HaCaT) were assessed by performing the (3-(4,5-dimethylthiazol-2-yl)−2,5 diphenyltetrazolium bromide (MTT) reduction inhibition assay. Both human cell lines were obtained from the American Type Culture Collection (ATCC, Manassas, VA, USA) and grown at 37 °C in a humidified incubator containing 5% CO2 in Dulbecco’s modified Eagle’s medium (DMEM) supplemented with 10% fetal bovine serum, 4 mM glutamine, 400 units/mL penicillin, and 0.1 mg mL^−1 streptomycin. Cells were plated on 96-well plates at a density of 5 × 10^3 per well in 100 μL of medium and incubated at 37 °C with 5% CO2. Medium was then replaced with 100 μl of fresh media containing peptide solution to a final concentration ranging from 0.1–10 μM/well. After a time of incubation ranging from 18 to 48 hours at 37 °C, the peptide-containing medium was removed, and 10 μL of a 5 mg mL^−1 MTT stock solution in DMEM without red phenol, corresponding to a final concentration of […] in DMEM (final volume of 100 μL), was added to the cells. […] Cell survival was reported as the relative absorbance, with respect to control, of blue formazan measured at 570 nm with a Synergy Multi Plate Reader. […]

[10] = system: human intestinal CaCo-2 cells; format: cell-based
Experimental: as §1

For `CC(C)(C)SSC[C@H](NC(=O)CCCCCN)C(=O)N[C@@H](CCCCN)C(=O)N[C@@H](Cc1ccc2ccccc2c1)C(=O)N[C@@H](Cc1ccc2ccccc2c1)C(=O)N[C@@H](CCCCN)C(=O)N[C@@H](CCCCN)C(=O)N[C@@H](CSSC(C)(C)C)C(=O)NCCCCCC(N)=O` [P9Nal(SS)] (H-[Ahx]C(StBu)K[2Nal][2Nal]KKC(StBu)[Ahx]-NH2), the “relative hydrophobicity (retention in reverse phase HPLC)” value [1] was “most hydrophobic”, the “MIC, E. coli ATCC25922” value [2] was 10 µM (≈ 14 µg/mL) and the “MIC, S. aureus ATCC6538P” value [3] was 10 µM (≈ 14 µg/mL). The “Fold change (1 h)” value [4] was 1, the “MIC, P. aeruginosa ATCC27853” value [5] was 2.5 µM (≈ 3.51 µg/mL) and the “MIC, S. aureus MRSA” value [6] was 20 µM (≈ 28.1 µg/mL). For the same compound, the “MIC, B. spizizenii ATCC6633” value [7] was 10 µM (≈ 14 µg/mL) and the “MIC, PAO1 Wt” value [8] was 10 µM (≈ 14 µg/mL).
In the case of `CC(C)(C)SSC[C@H](NC(=O)CCCCCN)C(=O)N[C@@H](CCCCN)C(=O)N[C@@H](Cc1c[nH]c2ccccc12)C(=O)N[C@@H](Cc1c[nH]c2ccccc12)C(=O)N[C@@H](CCCCN)C(=O)N[C@@H](CCCCN)C(=O)N[C@@H](CSSC(C)(C)C)C(=O)NCCCCCC(N)=O` [P9Trp(SS)] (H-[Ahx]C(StBu)KWWKKC(StBu)[Ahx]-NH2), the “MIC, E. coli ATCC25922” value [2] is reported as 10 µM (≈ 13.8 µg/mL), the “MIC, S. aureus ATCC6538P” value [3] is reported as 20 µM (≈ 27.7 µg/mL) and the “Fold change (1 h)” value [4] is reported as 1. The “MIC, P. aeruginosa ATCC27853” value [5] was 2.5 µM (≈ 3.46 µg/mL), the “MIC, S. aureus MRSA” value [6] was 40 µM (≈ 55.3 µg/mL) and the “MIC, B. spizizenii ATCC6633” value [7] was 40 µM (≈ 55.3 µg/mL). For the same compound, the “MIC, PAO1 Wt” value [8] was 10 µM (≈ 13.8 µg/mL).
With `CC(=O)N[C@@H](CC(C)C)C(=O)N[C@@H](CCCNC(=N)N)C(=O)N[C@H](C(=O)N[C@@H](CCCNC(=N)N)C(=O)N[C@@H](CC(C)C)C(=O)N[C@@H](C)C(=O)N[C@@H](CO)C(=O)N[C@@H](Cc1c[nH]cn1)C(=O)N[C@@H](CC(C)C)C(=O)N[C@@H](CCCNC(=N)N)C(=O)N[C@@H](CCCCN)C(=O)N[C@@H](CC(C)C)C(=O)N[C@@H](CCCNC(=N)N)C(=O)N[C@@H](CCCCN)C(=O)N[C@@H](CCCNC(=N)N)C(=O)N[C@@H](CC(C)C)C(=O)N[C@@H](CC(C)C)C(=O)N[C@@H](CCCNC(=N)N)C(N)=O)C(C)C` [Ac-ApoE(133–150)-NH2, reference compound] the “Fold change (16 h)” value [4] was greater than 16.
In the case of `CC(C)C[C@H](NC(=O)[C@H](CCCNC(=N)N)NC(=O)[C@@H](NC(=O)[C@H](CCCNC(=N)N)NC(=O)[C@@H](N)CC(C)C)C(C)C)C(=O)N[C@@H](C)C(=O)N[C@@H](CO)C(=O)N[C@@H](Cc1c[nH]cn1)C(=O)N[C@@H](CC(C)C)C(=O)N[C@@H](CCCNC(=N)N)C(=O)N[C@@H](CCCCN)C(=O)N[C@@H](CC(C)C)C(=O)N[C@@H](CCCNC(=N)N)C(=O)N[C@@H](CCCCN)C(=O)N[C@@H](CCCNC(=N)N)C(=O)N[C@@H](CC(C)C)C(=O)N[C@@H](CC(C)C)C(=O)N[C@@H](CCCNC(=N)N)C(=O)O` [ApoE(133–150), reference compound], the “Fold change (1 h)” value [4] is reported as greater than 16, the “Fold change (16 h)” value [4] is reported as greater than 16 and the “MIC, Preincubation for 1 h in 10% serum” value ([4]; E. coli ATCC 25922, peptide incubated 1 h in 10% fetal bovine serum at 37 °C before MIC assay, five replicates) is reported as “completely lost antimicrobial activity”.
With `CC(C)(C)SC[C@H](NC(=O)CCCCCN)C(=O)N[C@@H](CCCCN)C(=O)N[C@@H](Cc1ccc2ccccc2c1)C(=O)N[C@@H](Cc1ccc2ccccc2c1)C(=O)N[C@@H](CCCCN)C(=O)N[C@@H](CCCCN)C(=O)N[C@@H](CSC(C)(C)C)C(=O)NCCCCCC(N)=O` [P9Nal(SR)] (H-[Ahx]C(tBu)K[2Nal][2Nal]KKC(tBu)[Ahx]-NH2) the “MIC, E. coli ATCC25922” value [2] was 10 µM (≈ 13.4 µg/mL), the “MIC, S. aureus ATCC6538P” value [3] was 40 µM (≈ 53.6 µg/mL) and the “Fold change (1 h)” value [4] was 1. The “Fold change (16 h)” value [4] was greater than 8, the “toxic effects on HaCaT cells at low doses” value [9] was “no evident toxic effects” and the “toxic effect on CaCo2 cells at low doses, compared with HaCaT” value [10] was “slightly higher”. The “MIC, P. aeruginosa ATCC27853” value [5] was 1.25 µM (≈ 1.68 µg/mL), the “MIC, S. aureus MRSA” value [6] was 40 µM (≈ 53.6 µg/mL) and the “MIC, B. spizizenii ATCC6633” value [7] was 40 µM (≈ 53.6 µg/mL). For the same compound, the “MIC, PAO1 Wt” value [8] was 10 µM (≈ 13.4 µg/mL).
